Laboratory results: patent US11440898B2, “Isoquinoline compounds, methods for their preparation, and therapeutic uses thereof in conditions associated with the alteration of the activity of beta galactosidase” (Minoryx Therapeutics S.L., priority 2016, dated 2022)

Target: T1, mutated beta-galactosidase (p.R60H canine GLB1) in GM11473 fibroblasts (Canis lupus familiaris, UniProt Q9TRY9, R60H)
T1 construct: host or cells: GM11473 canine GM1 gangliosidosis fibroblasts
T1 sequence (Q9TRY9 30-668 R60H): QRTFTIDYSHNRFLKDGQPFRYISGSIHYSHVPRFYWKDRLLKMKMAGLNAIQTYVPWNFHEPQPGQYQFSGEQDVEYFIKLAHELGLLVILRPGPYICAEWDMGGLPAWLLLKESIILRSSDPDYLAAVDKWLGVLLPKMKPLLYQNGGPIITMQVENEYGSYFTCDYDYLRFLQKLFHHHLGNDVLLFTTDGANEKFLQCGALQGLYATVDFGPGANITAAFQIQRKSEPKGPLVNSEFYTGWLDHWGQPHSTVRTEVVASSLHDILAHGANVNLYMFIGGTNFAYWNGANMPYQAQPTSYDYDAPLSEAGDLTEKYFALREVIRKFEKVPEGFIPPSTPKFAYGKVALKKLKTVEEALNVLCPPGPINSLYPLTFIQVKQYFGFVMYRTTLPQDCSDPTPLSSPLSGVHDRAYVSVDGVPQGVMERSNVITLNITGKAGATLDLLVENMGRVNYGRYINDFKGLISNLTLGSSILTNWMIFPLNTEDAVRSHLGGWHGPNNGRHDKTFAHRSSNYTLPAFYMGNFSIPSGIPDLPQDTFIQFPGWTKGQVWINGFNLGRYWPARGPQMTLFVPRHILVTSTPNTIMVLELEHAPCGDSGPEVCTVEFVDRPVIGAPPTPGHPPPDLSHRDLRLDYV
Assay: Enhancement of β-galactosidase activity measured in GM1 fibroblasts (GM11473), 4-MU-β-D-galactopyranoside substrate
Format: cell-based
Design: key: Increase in comparison with non-treated of >2.5 fold is shown as A; Increase in comparison with non-treated of >1.7-2.5 fold is shown as B; Increase in comparison with non-treated of 1.2-1.7 fold is shown as C; D means that no increase compared with non-treated cells was detected in this method
Details: increase in β-galactosidase enzyme activity vs non-treated cells, concentrations between 6 and 50 μM, 4 days incubation
Method: The capacity of the Compounds of the Disclosure to enhance mutated beta-galactosidase activity levels in GM1 fibroblasts was assayed as follows.
Fibroblasts homozygous for a GM1 gangliosidosis missense mutation (GM11473) (canine fibroblasts homozygous for the GM1 gangliosidosis missense mutation p.R60H equivalent to human p.R59H mutation) were purchased from Coriell Institute for Medical Research (Camden, N.J., USA).
Fibroblasts were seeded at 4×10^4 cells per well in 12-well cell culture plates in Dulbecco's Modified Eagle's Media (DMEM) supplemented with 10% of fetal bovine serum (FBS), 1% penicillin/streptomycin (P/S) (Thermo Fisher Scientific, Waltham, Mass., USA) and incubated at 37° C., 5% CO2 overnight for cell attachment. Subsequently, cells were incubated in the absence or presence of the compounds at the desired concentration for 4 days. After incubation, cells were washed twice with phosphate-buffered saline (“PBS”) and detached using Trypsin-EDTA solution (Sigma Aldrich, St. Louis, Mo., USA) to prepare cell pellets. The pellets were stored at −80° C. until activity assays were performed.
β-Galactosidase activity in cell lysates was measured by using 4-Methylumbelliferyl-β-D-galactopyranoside substrate (Sigma Aldrich, St. Louis, Mo., USA). Briefly, lysates were resuspended in 200 μL of 0.9% NaCl containing 0.01% triton X-100 lysis buffer to promote membrane disruption. The cell suspension was sonicated and centrifuged to remove insoluble materials. Then, lysates were mixed with 4-MU-β-D-galactopyranoside in 100 mM citrate buffer (pH=4) and 100 mM NaCl for 60 min at 37° C. The reaction was terminated by adding 100 mM glycine-NaOH buffer (pH=10.7). The liberated 4-MU was measured on a GloMax Discover plate reader (Promega, Madison, Wis., USA) with excitation at 340 nm and emission at 460 nm. Protein quantification was determined using Pierce BCA Protein Assay Kit (Thermo Fisher Scientific, Waltham, Mass., USA). Measurements were interpolated in a 4-MU standard curve and normalized by protein quantity. Enzyme activities were expressed in treated cells as X-fold increase in comparison with non-treated cells (X=1 represents no enhancement).
The capacity of the Compounds of the Disclosure to produce an increase in β-galactosidase enzyme activity in canine GM1 fibroblasts bearing p.R60H canine GLB1 mutation at concentrations between 6 and 50 μM is denoted as follows: • Increase in comparison with non-treated of >2.5 fold is shown as A. • Increase in comparison with non-treated of >1.7-2.5 fold is shown as B. • Increase in comparison with non-treated of 1.2-1.7 fold is shown as C. • D means that no increase compared with non-treated cells was detected in this method. • ND means “not determined.”

Compound | Activity in GM11473 fibroblasts
O=C(NC1CCc2ccccc2C1)c1ccc(Nc2nccc3ccc(Cl)cc23)nc1 (stereo not shown) [Example 60, 6-((7-Chloroisoquinolin-1-yl)amino)-N-(1,2,3,4-tetrahydronaphthalen-2-yl)nicotinamide] | C (Increase in comparison with non-treated of 1.2-1.7 fold is shown as C)
O=C(NCc1ccc2c(c1)OCO2)c1ccc(Nc2nccc3ccc(Cl)cc23)nc1 [Example 62, N-(benzo[d][1,3]dioxol-5-ylmethyl)-6-((7-chloroisoquinolin-1-yl)amino)nicotinamide] | D
O=C(NCc1ccc2c(c1)CCCO2)c1ccc(Nc2nccc3ccc(Cl)cc23)nc1 [Example 63, 6-((7-Chloroisoquinolin-1-yl)amino)-N-(chroman-6-ylmethyl)nicotinamide] | C (Increase in comparison with non-treated of 1.2-1.7 fold is shown as C)
O=S(=O)(NCC(c1cccnc1)N1CCCC1)c1cccc(Nc2nccc3ccc(Cl)cc23)c1 (stereo not shown) [Example 65, 3-((7-Chloroisoquinolin-1-yl)amino)-N-(2-(pyridin-3-yl)-2-(pyrrolidin-1-yl)ethyl)benzenesulfonamide] | C (Increase in comparison with non-treated of 1.2-1.7 fold is shown as C)
O=S(=O)(NCC(c1ccccn1)N1CCOCC1)c1cccc(Nc2nccc3ccc(Cl)cc23)c1 (stereo not shown) [Example 66, 3-((7-Chloroisoquinolin-1-yl)amino)-N-(2-morpholino-2-(pyridin-2-yl)ethyl)benzenesulfonamide] | C (Increase in comparison with non-treated of 1.2-1.7 fold is shown as C)
Cn1nnc2c(NS(=O)(=O)c3cccc(Nc4nccc5ccc(Cl)cc45)c3)cccc21 [Example 67, 3-((7-Chloroisoquinolin-1-yl)amino)-N-(1-methyl-1H-benzo[d][1,2,3]triazol-4-yl)benzenesulfonamide] | C (Increase in comparison with non-treated of 1.2-1.7 fold is shown as C)
O=S(=O)(NCc1ccc2c(c1)OCCO2)c1cccc(Nc2nccc3ccc(Cl)cc23)c1 [Example 69, 3-((7-Chloroisoquinolin-1-yl)amino)-N-((2,3-dihydrobenzo[b][1,4]dioxin-6-yl)methyl)benzenesulfonamide] | D
O=S(=O)(NC1CCc2ccccc2C1)c1cccc(Nc2nccc3ccc(Cl)cc23)c1 (stereo not shown) [Example 70, 3-((7-Chloroisoquinolin-1-yl)amino)-N-(1,2,3,4-tetrahydronaphthalen-2-yl)benzenesulfonamide] | C (Increase in comparison with non-treated of 1.2-1.7 fold is shown as C)
Cn1nnc2cc(CNS(=O)(=O)c3cccc(Nc4nccc5ccc(Cl)cc45)c3)ccc21 [Example 71, 3-((7-Chloroisoquinolin-1-yl)amino)-N-((1-methyl-1H-benzo[d][1,2,3]triazol-5-yl)methyl)benzenesulfonamide] | C (Increase in comparison with non-treated of 1.2-1.7 fold is shown as C)
O=S(=O)(NCC(c1ccccn1)N1CCOCC1)c1ccc(Nc2nccc3ccc(Cl)cc23)cc1 (stereo not shown) [Example 72, 4-((7-Chloroisoquinolin-1-yl)amino)-N-(2-morpholino-2-(pyridin-2-yl)ethyl)benzenesulfonamide] | D
Cn1nnc2c(NS(=O)(=O)c3ccc(Nc4nccc5ccc(Cl)cc45)cc3)cccc21 [Example 73, 4-((7-Chloroisoquinolin-1-yl)amino)-N-(1-methyl-1H-benzo[d][1,2,3]triazol-4-yl)benzenesulfonamide] | D
O=S(=O)(NCc1ccc2nsnc2c1)c1cccc(Nc2nccc3ccc(Cl)cc23)c1 [Example 74, N-(benzo[c][1,2,5]thiadiazol-5-ylmethyl)-3-((7-chloroisoquinolin-1-yl)amino)benzenesulfonamide] | D
O=S(=O)(NCc1ccc2c(c1)OCCO2)c1ccc(Nc2nccc3ccc(Cl)cc23)cc1 [Example 75, 4-((7-chloroisoquinolin-1-yl)amino)-N-((2,3-dihydrobenzo[b][1,4]dioxin-6-yl)methyl)benzenesulfonamide] | B (Increase in comparison with non-treated of >1.7-2.5 fold is shown as B)
O=S(=O)(NCc1ccc2nsnc2c1)c1ccc(Nc2nccc3ccc(Cl)cc23)cc1 [Example 76, N-(benzo[c][1,2,5]thiadiazol-5-ylmethyl)-4-((7-chloroisoquinolin-1-yl)amino)benzenesulfonamide] | C (Increase in comparison with non-treated of 1.2-1.7 fold is shown as C)
O=S(=O)(NC1CCc2ccccc2C1)c1ccc(Nc2nccc3ccc(Cl)cc23)cc1 (stereo not shown) [Example 77, 4-((7-Chloroisoquinolin-1-yl)amino)-N-(1,2,3,4-tetrahydronaphthalen-2-yl)benzenesulfonamide] | A (Increase in comparison with non-treated of >2.5 fold is shown as A)
O=S(=O)(NCC1CCc2ccccc2C1)c1ccc(Nc2nccc3ccc(Cl)cc23)cc1 (stereo not shown) [Example 78, 4-((7-Chloroisoquinolin-1-yl)amino)-N-((1,2,3,4-tetrahydronaphthalen-2-yl)methyl)benzenesulfonamide] | A (Increase in comparison with non-treated of >2.5 fold is shown as A)
